Measured values taken from patent publication US12139729B2, “Neurodegenerative disorders” (priority 2013, dated 2024).
Residues, ends and D or L forms follow the SMILES beside them.

How the values were obtained:
[1] = test system: rat model for hemi-Parkinsonism; experiment: Paw placement test (cylinder test) after 6-OHDA lesion; format: in vivo; details: day 2: two days post 6-OHDA, one day after NBP-14 injection via cannula into MFB; p<0.05 vs 6-OHDA vehicle
Procedure: Unlike animal models for Alzheimer's disease, the rat model for hemi-Parkinsonism is very well established and readily quantifiable. Accordingly, a unilateral intra striatum injection of the T30 was administered to observe any behavioural effects of the toxin. In a subsequent experiment, the potential protective effects of NBP14 were observed against the well-known neurotoxin 6-hydroxydopamine (6-OHDA), which led to DA neuron loss on the injected side whilst sparing the contralateral DA neurons. NBP-14 was administered via implanted cannula into the medial forebrain bundle (MFB). 6-hydroxydopamine was injected at 10 mg/kg.
Animals are anaesthetized using Ketamine (10%; 0.1 ml/kg body weight) and Xylazine (2%; 0.01 ml/kg). The animals are then stereotactically injected into the MFB with 2 μL 6-OHDA at a concentration of 20 mg/ml in 0.02% ascorbic acid. […]
Paw Placement Test (Cylinder Test): This test assesses a rat's independent forelimb use to support the body against the walls of a cylindrical enclosure. […] To perform this test, rats are placed individually in a glass cylinder (21 cm diameter, 34 cm height) and wall exploration is recorded for 3 minutes. […] Wall exploration is expressed in terms of the ratio between the intact (R) and impaired legs (L) and calculated as the values of intact right+both forelimbs divided into the values of impaired left+both forelimbs (R/L). […]

[2] = target: T1, acetylcholinesterase (AChE) (Rattus norvegicus, UniProt P37136); experiment: Acetylcholinesterase enzymatic activity assay (Ellman reagent); format: biochemical
T1 construct: endogenous in cells; host or cells: PC12 cells (released enzyme in the supernatant)
T1 sequence (P37136 32-614): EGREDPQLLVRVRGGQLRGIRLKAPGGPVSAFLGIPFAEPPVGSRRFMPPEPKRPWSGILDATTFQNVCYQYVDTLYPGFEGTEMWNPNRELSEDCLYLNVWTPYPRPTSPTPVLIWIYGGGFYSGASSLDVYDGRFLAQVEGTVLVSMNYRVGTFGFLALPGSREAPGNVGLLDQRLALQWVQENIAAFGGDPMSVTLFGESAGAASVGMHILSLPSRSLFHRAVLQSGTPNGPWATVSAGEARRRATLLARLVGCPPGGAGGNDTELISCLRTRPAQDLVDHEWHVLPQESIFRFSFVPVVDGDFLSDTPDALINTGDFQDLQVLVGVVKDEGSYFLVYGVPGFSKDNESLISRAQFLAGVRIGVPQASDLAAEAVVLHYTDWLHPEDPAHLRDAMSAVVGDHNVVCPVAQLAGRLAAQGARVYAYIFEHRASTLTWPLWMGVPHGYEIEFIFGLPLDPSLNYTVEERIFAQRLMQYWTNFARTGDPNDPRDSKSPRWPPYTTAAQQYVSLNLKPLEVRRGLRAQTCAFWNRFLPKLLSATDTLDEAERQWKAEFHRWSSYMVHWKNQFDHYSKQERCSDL
Procedure: AChE activity was measured using the Ellman reagent that measures the presence of thiol groups as a result of AChE activity. Cells were plated the day before the experiment as for the cell viability assay. Cells were treated with different concentrations of Cyclic T14 (0.1-100 μM) and T30, T14 and Aβ 10 μM alone or combined with Cyclic T14 (0.1 and 0.7 μM). […] The Ellman reagent was prepared as a mixture of the 3 solutions in a ratio 33(A):3(B):4(C). Absorbance measurements were taken at regular intervals (3, 10, 30 and 60 mins) across experiments at 405 nm.
The inventor next decided to confirm whether or not Cyclic T14 affects the enzymatic activity of acetylcholinesterase (AChE). AChE enzymatic activity was measured using the acetylcholinesterase activity assay.

[3] = test system: rat brain slices; experiment: Calcium fluorometry (Fluo-4) in brain slices; format: cell-based; details: two hours
Procedure: Increases in intracellular Ca^2+ were monitored by measuring changes in fluorescence in cells loaded with Fluo-4 (Life Technologies Corporation, UK). […] After the 2 hours, slices were incubated in the dark for 40 minutes at room temperature with 1.2 ml/well of loading medium that contained: Tyrode's salt solution (TSS; 137 mM NaCl, 2.7 mM KCl, 1.0 mM MgCl2, 2.5 mM CaCl2, 0.2 mM NaH2PO4, 12.0 NaHCO3, 5.5 glucose, pH 7.4), Fluo-4 (2 μM), Pluronic F127 (0.02%) and probenecid (2 mM). Probenecid is a blocker of the multidrug resistant protein, an ion transporter, and avoids the excretion of the fluorescent molecule from the cell. After incubation, slices were washed with TSS and 1200 μl/well of de-esterification medium, containing TSS and probenecid, were added. Slices were incubated in the dark for 20 minutes at 22° C. Fluorescence measurements (excitation 485 nm, emission 538 nm) were recorded in a Fluostar Optima (BMG, UK) plate reader.

[4] = Partition coefficient (Log P), shake-tube method, 1-octanol/water; format: physicochemical; details: room temperature
Procedure: Saturation of the solvents was performed as follows. 1-octanol was agitated in the presence of water for 24 h at room temperature. mQ water was agitated in presence of 1-octanol for 24 h at room temperature. Then the solutions were left to equilibrate overnight at room temperature. Saturated solvents were collected, using syringes and needles, and stored at room temperature until further use.
Saturated water and saturated i-octanol were placed in a glass tube in the following ratios: Each tube contained the equivalent of 0.25 mg of cyclic T14. All tubes were then mixed for 4 h at room temperature. After agitation the tubes were left at room temperature to equilibrate.
The concentrations of cyclic T14 used for the standard curve were: 0.5 mg·ml^−1, 0.25 mg·ml^−1, 0.13 mg·ml^−1, 0.066 mg·ml^−1, 0.033 mg·ml^−1 and 0.016 mg/ml^−1. The absorbance of the standard curve was measured at 280 nm.
Both fractions of each sample were collected separately using a syringe with needle. The absorbance of all fractions was measured at 280 nm and the concentration of all the fraction was estimated based on the standard curve. The partition coefficient of cyclic T14 was calculated using the following equation: Log P=Log (Concentration in Octanol/Concentration in Water)
The results from each condition were averaged in order to obtain the Log P of cyclic T14.

## CSCC[C@@H]1NC(=O)[C@H](Cc2ccc(O)cc2)NC(=O)[C@H](CO)NC(=O)[C@H](CO)NC(=O)[C@H](Cc2c[nH]c3ccccc23)NC(=O)[C@H](CCCNC(=N)N)NC(=O)[C@H](Cc2c[nH]cn2)NC(=O)[C@H](Cc2ccccc2)NC(=O)[C@H](CCC(=O)O)NC(=O)[C@H](C)NC(=O)[C@H](CCCCN)NC(=O)[C@H](Cc2c[nH]c3ccccc23)NC(=O)[C@H](Cc2c[nH]cn2)NC(=O)[C@H](C(C)C)NC1=O [Cyclic T14] (cyclo(AEFHRWSSYMVHWK))
[1]
  R/L ratio of paw placement: 3.62±0.55
[2]; 2 μM
  effect on enzyme activity of acetylcholinesterase: did not affect
[2]; ✓ = Dream Drug feature 'Does not affect AChE activity'
  effect on AChE activity (Table 3 feature): ✓
[3]; Cyclic T14 1 μM + β-Amyloid 10 μM
  intracellular calcium level raised by β-Amyloid, combined with Cyclic T14: returned to baseline
[3]; Cyclic T14 1 μM
  intracellular calcium level, compound alone: does not change the basal level
[4]
  logP: -0.59
